Test results reported in publication PMC10247784, “Physiological activation of human and mouse bitter taste receptors by bile acids” (Communications Biology, 2023).
Values joined by “and” are separate entries in the source; they are usually repeats but may differ in a detail not shown here. Equal entries are not always repeated.

Target: T1, human TAS2R1 (Homo sapiens, UniProt Q9NYW7)
T1 construct: expressed in transfected cells; host or cells: HEK293T-Gα16gust44
T1 sequence (Q9NYW7 1-299): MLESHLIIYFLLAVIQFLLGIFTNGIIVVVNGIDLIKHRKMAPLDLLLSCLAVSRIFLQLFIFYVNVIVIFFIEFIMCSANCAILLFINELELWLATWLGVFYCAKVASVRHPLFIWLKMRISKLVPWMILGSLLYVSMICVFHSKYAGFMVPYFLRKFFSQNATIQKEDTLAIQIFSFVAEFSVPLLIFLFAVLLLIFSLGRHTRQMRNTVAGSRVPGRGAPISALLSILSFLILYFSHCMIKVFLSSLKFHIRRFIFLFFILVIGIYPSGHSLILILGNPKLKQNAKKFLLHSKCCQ
Assay: Calcium imaging assay (FLIPR), HEK293T-Gα16gust44 cells transfected with human TAS2R1
Type: cell-based
Outline: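 Fluo-4 calcium responses; ΔF/F corrected for mock transfection and buffer control; triplicate independent dose-response runs; p < 0.01 threshold.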

## C[C@H](CCC(=O)O)[C@H]1CC[C@H]2[C@@H]3CC[C@@H]4C[C@H](O)CC[C@]4(C)[C@H]3CC[C@]12C [Lithocholic Acid, lithocholic acid]
TAS2R1, bile acids, mean
  Efficacy = maximal amplitude (ΔF/F): 0.1221
TAS2R1, bile acids, single replicates, listed as LCA
  Efficacy (maximal amplitude ΔF/F), individual data points: 0.1505 and 0.1173 and 0.0984
Time 0 s
  RLU: 0 RLU
Time 2.015 s
  RLU: -14.5951 RLU
Time 4.015 s
  RLU: -7.128 RLU
Time 6.015 s
  RLU: 1.224 RLU
Time 8.015 s
  RLU: 0.3531 RLU
Time 12.015 s
  RLU: -16.4638 RLU
Time 14.015 s
  RLU: -4.132 RLU
Time 16.015 s
  RLU: -20.8125 RLU
Time 18.015 s
  RLU: 1.1121 RLU
Time 18.796 s
  RLU: 25.7864 RLU
Time 20.796 s
  RLU: 69.0707 RLU
Time 22.796 s
  RLU: 111.584 RLU
Time 24.796 s
  RLU: 140.624 RLU
Time 26.796 s
  RLU: 217.83 RLU
Time 28.796 s
  RLU: 298.948 RLU
Time 30.796 s
  RLU: 381.71 RLU
Time 32.796 s
  RLU: 449.564 RLU
Time 34.796 s
  RLU: 475.411 RLU
Time 36.796 s
  RLU: 563.041 RLU
Time 38.796 s
  RLU: 583.488 RLU
Time 40.796 s
  RLU: 612.54 RLU
Time 42.796 s
  RLU: 644.654 RLU
Time 44.796 s
  RLU: 679.197 RLU
Time 46.796 s
  RLU: 695.288 RLU
Time 48.796 s
  RLU: 701.461 RLU
Time 50.796 s
  RLU: 756.471 RLU
Time 52.796 s
  RLU: 734.503 RLU
Time 54.796 s
  RLU: 776.344 RLU
Time 56.796 s
  RLU: 818.875 RLU
Time 58.796 s
  RLU: 815.634 RLU
Time 60.796 s
  RLU: 814.863 RLU
Time 62.796 s
  RLU: 815.671 RLU
Time 64.796 s
  RLU: 814.539 RLU
Time 66.796 s
  RLU: 840.236 RLU
Time 68.796 s
  RLU: 839.926 RLU
Time 70.796 s
  RLU: 857.451 RLU
Time 72.796 s
  RLU: 860.887 RLU
Time 74.796 s
  RLU: 876.325 RLU
Time 76.796 s
  RLU: 873.737 RLU
Time 78.796 s
  RLU: 889.618 RLU
Time 80.796 s
  RLU: 892.644 RLU
Time 82.796 s
  RLU: 897.83 RLU
Time 84.796 s
  RLU: 886.895 RLU
Time 86.796 s
  RLU: 870.09 RLU
Time 88.796 s
  RLU: 907.185 RLU
Time 90.796 s
  RLU: 877.458 RLU
Time 92.796 s
  RLU: 891.158 RLU
Time 94.796 s
  RLU: 920.191 RLU
Time 96.796 s
  RLU: 905.406 RLU
Time 98.796 s
  RLU: 898.952 RLU
Time 100.796 s
  RLU: 892.147 RLU
Time 102.796 s
  RLU: 894.991 RLU
Time 104.796 s
  RLU: 894.373 RLU
Time 106.796 s
  RLU: 867.268 RLU
Time 108.796 s
  RLU: 872.524 RLU
Time 110.796 s
  RLU: 857.451 RLU
Time 112.796 s
  RLU: 864.824 RLU
Time 114.796 s
  RLU: 846.501 RLU
Time 116.796 s
  RLU: 868.556 RLU
Time 118.796 s
  RLU: 842.814 RLU
Time 120.796 s
  RLU: 851.852 RLU
Time 122.796 s
  RLU: 861.523 RLU
Time 124.796 s
  RLU: 851.498 RLU
Time 126.796 s
  RLU: 820.705 RLU
Time 128.796 s
  RLU: 833.006 RLU
Time 130.796 s
  RLU: 811.797 RLU
Time 132.796 s
  RLU: 786.781 RLU
Time 134.796 s
  RLU: 809.512 RLU
Time 136.796 s
  RLU: 797.52 RLU
Time 137.562 s
  RLU: 816.516 RLU
Time 143.562 s
  RLU: 785.521 RLU
Time 149.562 s
  RLU: 770.713 RLU
Time 155.562 s
  RLU: 645 RLU
Time 161.562 s
  RLU: 650.189 RLU
Time 167.562 s
  RLU: 602.288 RLU
Time 173.562 s
  RLU: 588.477 RLU
Time 179.562 s
  RLU: 570.66 RLU
Time 185.562 s
  RLU: 562.77 RLU
Time 191.562 s
  RLU: 515.911 RLU
Time 197.562 s
  RLU: 487.382 RLU
Time 203.562 s
  RLU: 468.151 RLU
Time 209.562 s
  RLU: 433.685 RLU
Time 215.562 s
  RLU: 406.858 RLU
Time 221.562 s
  RLU: 386.034 RLU
Time 227.562 s
  RLU: 427.313 RLU
Time 233.562 s
  RLU: 409.48 RLU
Time 239.562 s
  RLU: 419.888 RLU
Time 245.562 s
  RLU: 384.802 RLU
Time 293.562 s
  RLU: 250.547 RLU
Time 299.562 s
  RLU: 240.784 RLU
Calcium trace, sheet TAS2R1, Time 305.562 s
  RLU: 255.305 RLU
Calcium trace, sheet TAS2R1, Time 311.562 s
  RLU: 251.175 RLU
Calcium trace, sheet TAS2R1, Time 317.562 s
  RLU: 242.237 RLU
Calcium trace, sheet TAS2R1, Time 323.562 s
  RLU: 237.346 RLU
Calcium trace, sheet TAS2R1, Time 329.562 s
  RLU: 210.072 RLU
Calcium trace, sheet TAS2R1, Time 335.562 s
  RLU: 207.541 RLU
Calcium trace, sheet TAS2R1, Time 341.562 s
  RLU: 224.802 RLU
Calcium trace, sheet TAS2R1, Time 347.562 s
  RLU: 199.834 RLU
Calcium trace, sheet TAS2R1, Time 353.562 s
  RLU: 189.761 RLU
Calcium trace, sheet TAS2R1, Time 359.562 s
  RLU: 182.753 RLU
Lowest concentration with significantly increased fluorescence vs empty vector (p < 0.01)
  Activation threshold concentration TAS2R1: 0.3 µM and 0.30 µM
